The values below are quoted from earlier work in patent US20110321180A1, “COMPOSITIONS AND METHODS TO GENERATE PILOSEBACEOUS UNITS” (University of Southern California, priority 2008, published 2011).

The conditions of series [1]: DMSO.
The conditions of series [2]: in published reports.

In the case of `c1cc(-c2cnn3cc(-c4ccc(OCCN5CCCCC5)cc4)cnc23)ccn1` [Dorsomorphin], the solubility result in series [1] is “soluble in DMSO”. In addition, the toxicity entry in series [2] is listed as “low toxicity”.

B1: noggin: BMP antagonist protein, UniProt: Q13253 (protein, UniProt Q13253 28-232, looked up)
Noggin: QHYLHIRPAPSDNLPLVDLIEHPDPIFDPKEKDLNETLLRSLLGGHYDPGFMATSPPEDRPGGGGGAAGGAEDLAELDQLLRQRPSGAMPSEIKGLEFSEGLAQGKKQRLSKKLRRKLQMWLWSQTFCPVLYAWNDLGSRFWPRYVKVGSCFSKRSCSVPEGMVCKPSKSVHLTVLRWRCQRRGGQRCGWIPIQYPIISECKCSC
In the case of B1, in the series with hair germs, the “size of hair germs” value is “makes hair germs bigger”.
